Source: patent US9931342B2, “Compositions and methods for the treatment of cancer” (Duke University, priority 2016, dated 2018)

Assays:
[1] = tested on: 1833 breast cancer cells; assay: Breast cancer bone metastasis after intra-cardiac injection of 1833 cells in mice; format: in vivo
From the text: (A) Experimental design. (B) Survival of mice after intra-cardiac injection of 1833 (1×10^5) breast cancer cells and treatment with either dimethyl sulfoxide (DMSO) control or the allosteric ABL inhibitor GNF5. n=10 mice per group. (C) Bioluminescent images of representative mice at day 22 after inoculation. (D) Quantification of bone metastases. n=10 mice per group. (E and F) Representative H&E staining (E) and quantification (F) of H&E stained tumor area of bone lesions. Arrows indicate tumor. n=3 mice per group. Scale bar, 200 μm. (G and H) Representative x-ray and μCT reconstruction (G) of mouse tibias and quantification (H) of bone volume/total volume. n=3 mice per group.
Procedures involving mice were approved and performed following the guidelines of the Institutional Animal Care and Use Committee (IACUC) of Duke University Division of Laboratory Animal Resources (DLAR). Age-matched female athymic NCr nu/nu mice (5 to 6 weeks old) were used for xenograft experiments. For intra-cardiac injections, cells were harvested from sub-confluent culture plates, washed with phosphate-buffered saline (PBS), and resuspended at 106/ml (1833) or 5×10^6/ml (SCP28) in PBS; 0.1 ml of the suspended cells was injected into the left cardiac ventricle using 30-gauge needles. Mice were anesthetized with isoflurane before injection and imaged by bioluminescence imaging. For intra-tibial injections, mice were anesthetized using a mixture of ketamine (100 mg/kg) and xylazine (10 mg/kg). The injection site was cleaned with a 70% alcohol wipe. Single-cell suspensions (1×10^5 cells) in a final volume of […] were injected into the upper half of the tibia medullary cavity, as felt by a lack of resistance when pushing cells into the cavity. Bioluminescence imaging was used to confirm successful cancer cell inoculation and progression of metastatic bone lesions. The allosteric inhibitor GNF5 was synthesized by the Duke University Small Molecule Synthesis Facility. For drug treatment, the mice were dosed daily with GNF5 in DMSO/peanut oil (1:9) at 50 mg/kg by intraperitoneal injection.
Hind limb bones were excised, fixed in 10% neutral-buffered formalin, and imaged using a μCT scanner (SkyScan 1176, Bruker Corp.) at […] and 180° scanning with a rotation step of 0.7° per image, 242-ms exposure time, 55-kV photon energy, and […]. The images were reconstructed using NReconServer, and bone volume was analyzed by CT analysis software (CTAn, Bruker Corp.).
Hind limb bones were excised, fixed in 10% neutral-buffered formalin, decalcified, and embedded in paraffin for H&E staining (Zhang et al., Cancer Cell, 2009).

[2] = tested on: RAF-ERK pathway; assay: ERK activation, Western blot of 1833 breast cancer cell lysates; format: cell-based, human; settings: 10 μM, 3 hours, 1833 cells
Description: (§1) Cells were lysed in radio-immunoprecipitation assay buffer with protease and phosphatase inhibitors. Cell debris was removed by microcentrifugation, and protein was quantified. Alternatively, equal cell numbers were plated onto six-well plates, and 24 hours later, conditioned medium was harvested and concentrated using Amicon Ultra Centrifugal Filters (Millipore). Equal amounts of protein or conditioned medium were separated by SDS-polyacrylamide gel electrophoresis and transferred onto nitrocellulose membranes and probed with the indicated antibodies.

[3] = tested on: TAZ; assay: TAZ protein abundance, immunoblot of 1833 cells; format: cell-based, human; settings: 20 μM, 24 hours
Description: Control 1833 cells or 1833 cells expressing murine Ab12-E505K mutant protein were plated (3×10^5 cells per group) in six well plates. Cells were then treated with vehicle (DMSO) or GNF5 (20 μM) for 24 hours and immunoblotted with the indicated antibodies. n=3 blots.
as §1

[4] = tested on: FH-deficient HLRCC; settings: cited from earlier work
[5] = 50 mg/kg daily i.p. starting day 8

| SMILES | bone destruction (x-ray, μCT) [1, 5] | bone tumor burden by histological analyses (H&E) [1, 5] | bone metastasis burden by bioluminescence imaging ([1]; 50 mg/kg daily i.p. starting day 8, day 22 imaging) | ratio of bone volume to total volume (μCT) ([1]; 50 mg/kg daily i.p. starting day 8, mouse tibias) | survival of tumor-bearing mice ([1]; 50 mg/kg daily i.p. starting day 8 after intra-cardiac injection) | ERK activation (phospho-Erk) [2] | TAZ protein abundance ([3]; 1833 cells expressing murine ABL2-E505K (GNF5-resistant mutant)) | TAZ protein abundance ([3]; control 1833 cells) | cytotoxicity to FH-deficient HLRCC [4] |
| --- | --- | --- | --- | --- | --- | --- | --- | --- | --- |
| O=C(NCCO)c1cccc(-c2cc(Nc3ccc(OC(F)(F)F)cc3)ncn2)c1 [GNF5] | decreased | decrease | decrease | increased | significant increase | does not activate | not decreased | decreased | – |
| Cc1ccc(NC(=O)c2ccc(CN3CCN(C)CC3)cc2)cc1Nc1nccc(-c2cccnc2)n1 [imatinib] | – | – | – | – | – | promotes ERK activation | – | – | cytotoxic |
| COc1cc2c(Nc3ccc(Br)cc3F)ncnc2cc1OCC1CCN(C)CC1 [vandetanib] | – | – | – | – | – | – | – | – | cytotoxic |
